Test results: patent US20080004302A1, “Novel Compounds” (ASTRAZENECA AB, priority 2006, published 2008)
Like-named read-outs stand apart in the source and are kept apart here.

Key:
[1] = target: human cytochrome P450 (CYP) 2C9 (Homo sapiens, UniProt P11712)
Procedure: (§1) The inhibitory potential (IC50) of test compounds against 5 human cytochrome P450 (CYP) isoforms (IA2, 2C9, 2C19, 3A4 and 2D6) was assessed using an automated fluorescent end point in vitro assay modified from Crespi (Crespi and Stresser, 2000). Microsomal subcellular fractions prepared from Yeast cell lines expressing each human CYP isoform were used as an enzyme source in this assay. The activity of the 5 major human CYPs was determined from the biotransformation of a number of coumarin substrates to fluorescent metabolites, in the presence of NADPH. […] Stock solutions of each CYP, with its respective substrate, were prepared in phosphate buffer pH7.4 (see Table 1) and 178 μl was added to the well of a black solid, flat bottom, 300 μl 96 well microtitre plate (Coming Costar). […] After pre-incubating at 37° C. for 5 min the reactions were started with addition of NADPH (20 μl, concentration shown in Table 1). The final solvent content in each incubation was <=2% (1% from the test compound and a maximum of 1% from the substrate). The appropriate solvent controls and substrate blanks were included in each experiment to assess control activity and identify any inherent fluorescence due to the test compounds. In addition, known inhibitors of each CYP were included as positive controls (see Table 3 for inhibitor concentrations and expected IC50 ranges). The reactions were stopped at defined timepoints (see Table 1) by quenching with 100 μl of solvent (acetonitrile:0.5M Tris buffer 80:20 v/v). The plates were read on a fluorimeter (Spectrafluor Plus) at the appropriate excitation and emission wavelengths (listed in Table 2) and the percent activity, corrected for control, was plotted against the test compound concentration.

[2] = target: T1, human cytochrome P450 (CYP) 1A2 (Homo sapiens, UniProt P05177)
T1 sequence (P05177 1-516): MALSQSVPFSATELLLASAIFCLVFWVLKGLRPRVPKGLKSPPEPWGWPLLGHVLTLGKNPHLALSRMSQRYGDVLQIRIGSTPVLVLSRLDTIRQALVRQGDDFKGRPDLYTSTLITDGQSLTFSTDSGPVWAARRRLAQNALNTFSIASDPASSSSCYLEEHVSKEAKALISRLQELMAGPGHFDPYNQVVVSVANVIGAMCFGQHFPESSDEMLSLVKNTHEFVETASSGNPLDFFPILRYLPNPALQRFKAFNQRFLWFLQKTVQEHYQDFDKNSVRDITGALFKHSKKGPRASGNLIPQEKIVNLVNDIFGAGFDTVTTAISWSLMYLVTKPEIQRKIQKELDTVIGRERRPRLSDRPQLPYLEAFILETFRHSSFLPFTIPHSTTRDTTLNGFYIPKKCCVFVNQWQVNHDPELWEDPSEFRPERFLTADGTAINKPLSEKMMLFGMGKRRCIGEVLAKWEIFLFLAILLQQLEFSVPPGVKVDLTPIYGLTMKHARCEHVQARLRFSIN
Procedure: as §1

[3] = target: T2, human cytochrome P450 (CYP) 3A4 (Homo sapiens, UniProt P08684); assay: Cytochrome P450 inhibition assay, 3A4; assay type: in vitro ADME; conditions: test concentrations 0.1-10 μM
T2 construct: made in house; host or cells: yeast (microsomal fraction)
Procedure: as §1

CYP2D6 = CYP2D6 (Homo sapiens, UniProt P10635); assay: in vitro; conditions: pH 7.4, probe coumarin substrate (not named)
Procedure: as §1

[4] = target: human cytochrome P450 (CYP) 2C19 (Homo sapiens, UniProt P33261)
Procedure: as §1

FGFR kinase domain = target: T3, FGFR kinase domain (Homo sapiens, UniProt P11362, C488A/C584S); assay: Kinase assay (ELISA) for inhibition of FGFR activity; assay type: biochemical
T3 construct: FGFR kinase domain (amino acids 458-765, C488A, C584S) N-terminally fused to a His6-tag; made in house
Procedure: To determine inhibition of FGFR activity, kinase assays were conducted using ELISA (Enzyme-Linked Immunosorbent Assay) technology.
Kinase activity assays were performed in 384-well polypropylene plates (Matrix, 4311) with a total volume of 40 μl in each well. Each well was coated with 2 μg of polyEAY substrate (Sigma, P3899) at 4° C. overnight. The plates were then washed once with 100 μl PBS and once with 100 μl 50 mM HEPES (pH 7.4) prior to the addition of the kinase assay reagents. […] Various concentrations of test compounds were each added in 5% (v/v) DMSO to yield a final assay DMSO concentration of 1.25% (v/v). The kinase reactions were incubated at room temperature for 45 minutes and stopped by washing the plate three times with 100 μl PBS plus 0.05% Tween. […] Following this, the plates were then washed repeatedly with 100 μl PBS plus 0.05% Tween to remove all traces of the antibody solution. 40 μl of 50 μg/ml 3,3′,5,5′-Tetramethylbenzidine (Sigma, T2885), 0.05M phosphate-citrate buffer, containing 0.03% sodium perborate was added to each well and the plates incubated at room temperature for twelve minutes. The colour reaction was stopped by the addition of 20 μl 2M H2SO4 and the plates read at 450 nm on a Spectrafluor Plus (Tecan).

human IGF1R = target: T4, human IGF1R (Homo sapiens, UniProt P08069); assay: Inhibition of insulin-like growth factor-1 receptor phosphorylation in R+ cells; assay type: cell-based; conditions: 30 nM IGF1, read-out: IGF cell class
T4 construct: expressed in transfected cells; host or cells: R+ cells (R- mouse fibroblasts transfected with human IGF1R)

Erk phosphorylation = assay: Growth factor (bFGF) stimulated Erk phosphorylation in NIH 3T3 cells; conditions: Mus musculus
CYP3A4 = target: T5, CYP3A4 (Homo sapiens, UniProt P08684); assay: Cytochrome P450 inhibition assay, 3A4; assay type: in vitro ADME; conditions: human, pH 7.4, probe coumarin substrate (not named); test concentrations 0.1-10 μM
T5 construct: made in house; host or cells: yeast (microsomal fraction)
Procedure: as §1

FGFR1 kinase = FGFR1 kinase (Homo sapiens, UniProt P11362); assay: Kinase assay (using Caliper technology); assay type: biochemical; conditions: FGFR1 kinase, Caliper; upper bound of bin; read-out: IC50
Summary of the method: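 Human FGFR1 kinase activity measured with a 13-mer fluorescently tagged FGFR1-specific peptide substrate; compounds serially diluted in 5% (v/v) DMSO. Reactions ran 1.5 h at room temperature, stopped with EDTA-containing HEPES pH 7.5 buffer. Phosphorylated and unphosphorylated peptide separated by microfluidic mobility shift.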

FGFR1 IIIc [5] = target: T6, FGFR1 IIIc (Homo sapiens, UniProt P11362); assay: Cell based inhibition of transiently expressed FGFR1 IIIc phosphorylation (Cos-1 cells); conditions: Cos-1 cells, phospho-FGFR1; upper bound of bin; read-out: IC50
T6 construct: host or cells: Cos-1

FGFR1 IIIc [6] = target: T6, FGFR1 IIIc; assay: Cell based inhibition of transiently expressed FGFR1 IIIc phosphorylation via use of ECHO technology (Cos-1 cells); conditions: Cos-1 cells, phospho-FGFR1, ECHO dosing; upper bound of bin; read-out: IC50
[7] = comparative testing, read-out: Fgf Ic50
[8] = FGFR inhibition tests, ELISA kinase assay, read-out: Activity class

Sequence of human cytochrome P450 (CYP) 2C19 (P33261 whole entry, the tested form may be a part): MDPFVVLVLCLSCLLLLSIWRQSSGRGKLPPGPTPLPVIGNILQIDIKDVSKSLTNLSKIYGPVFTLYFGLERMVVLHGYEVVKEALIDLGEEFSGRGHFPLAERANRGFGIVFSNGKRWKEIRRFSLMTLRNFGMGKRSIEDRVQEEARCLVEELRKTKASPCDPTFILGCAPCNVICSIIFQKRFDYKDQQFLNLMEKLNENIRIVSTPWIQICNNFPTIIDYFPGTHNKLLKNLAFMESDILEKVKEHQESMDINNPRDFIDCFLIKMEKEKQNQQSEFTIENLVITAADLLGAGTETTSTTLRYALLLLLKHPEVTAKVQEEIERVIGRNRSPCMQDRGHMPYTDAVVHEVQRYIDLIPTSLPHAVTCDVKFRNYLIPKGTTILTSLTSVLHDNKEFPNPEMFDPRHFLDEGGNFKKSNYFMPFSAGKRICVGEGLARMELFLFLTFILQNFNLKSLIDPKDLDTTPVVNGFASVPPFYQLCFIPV
T2 sequence (P08684 whole entry): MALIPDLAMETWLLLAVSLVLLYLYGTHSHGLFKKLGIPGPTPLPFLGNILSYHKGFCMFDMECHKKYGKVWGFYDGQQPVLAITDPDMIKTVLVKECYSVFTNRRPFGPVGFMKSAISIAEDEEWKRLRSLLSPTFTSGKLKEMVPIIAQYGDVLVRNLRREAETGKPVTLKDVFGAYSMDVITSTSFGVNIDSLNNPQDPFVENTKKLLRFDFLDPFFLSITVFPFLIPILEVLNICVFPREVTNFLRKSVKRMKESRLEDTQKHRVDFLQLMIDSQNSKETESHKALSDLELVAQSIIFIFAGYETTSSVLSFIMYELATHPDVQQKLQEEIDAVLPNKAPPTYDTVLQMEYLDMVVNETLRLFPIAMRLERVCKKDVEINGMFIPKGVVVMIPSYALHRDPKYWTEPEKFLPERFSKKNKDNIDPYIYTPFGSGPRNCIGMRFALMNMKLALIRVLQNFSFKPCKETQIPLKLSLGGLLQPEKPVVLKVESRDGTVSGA
Sequence of human cytochrome P450 (CYP) 2C9 (P11712 whole entry): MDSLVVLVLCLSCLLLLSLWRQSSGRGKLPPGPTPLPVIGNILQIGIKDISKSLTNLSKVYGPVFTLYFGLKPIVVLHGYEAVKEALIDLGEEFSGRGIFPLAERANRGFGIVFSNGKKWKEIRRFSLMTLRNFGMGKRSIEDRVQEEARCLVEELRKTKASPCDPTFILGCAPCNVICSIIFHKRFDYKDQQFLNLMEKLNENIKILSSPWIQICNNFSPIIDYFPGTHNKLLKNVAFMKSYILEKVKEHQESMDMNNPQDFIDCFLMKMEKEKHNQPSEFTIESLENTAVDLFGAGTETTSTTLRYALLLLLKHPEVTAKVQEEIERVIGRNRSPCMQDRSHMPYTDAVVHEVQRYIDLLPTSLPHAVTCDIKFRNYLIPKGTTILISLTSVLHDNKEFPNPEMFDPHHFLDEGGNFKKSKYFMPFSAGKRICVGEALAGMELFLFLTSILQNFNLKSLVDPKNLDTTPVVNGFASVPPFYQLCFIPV
Sequence of CYP2D6 (P10635 whole entry): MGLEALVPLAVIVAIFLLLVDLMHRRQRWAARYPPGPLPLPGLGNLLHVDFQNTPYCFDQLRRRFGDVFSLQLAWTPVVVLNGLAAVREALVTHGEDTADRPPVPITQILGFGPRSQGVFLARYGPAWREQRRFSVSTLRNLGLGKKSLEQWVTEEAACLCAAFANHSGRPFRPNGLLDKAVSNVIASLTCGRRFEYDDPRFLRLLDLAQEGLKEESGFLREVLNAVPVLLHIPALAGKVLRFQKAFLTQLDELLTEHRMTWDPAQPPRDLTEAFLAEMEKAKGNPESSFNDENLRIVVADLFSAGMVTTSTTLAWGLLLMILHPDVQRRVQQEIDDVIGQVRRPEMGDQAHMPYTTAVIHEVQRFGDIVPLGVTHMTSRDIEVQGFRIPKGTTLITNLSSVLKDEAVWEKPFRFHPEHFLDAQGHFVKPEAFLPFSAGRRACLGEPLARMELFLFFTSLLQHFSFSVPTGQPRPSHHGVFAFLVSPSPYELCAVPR
T4 sequence (P08069 31-1367): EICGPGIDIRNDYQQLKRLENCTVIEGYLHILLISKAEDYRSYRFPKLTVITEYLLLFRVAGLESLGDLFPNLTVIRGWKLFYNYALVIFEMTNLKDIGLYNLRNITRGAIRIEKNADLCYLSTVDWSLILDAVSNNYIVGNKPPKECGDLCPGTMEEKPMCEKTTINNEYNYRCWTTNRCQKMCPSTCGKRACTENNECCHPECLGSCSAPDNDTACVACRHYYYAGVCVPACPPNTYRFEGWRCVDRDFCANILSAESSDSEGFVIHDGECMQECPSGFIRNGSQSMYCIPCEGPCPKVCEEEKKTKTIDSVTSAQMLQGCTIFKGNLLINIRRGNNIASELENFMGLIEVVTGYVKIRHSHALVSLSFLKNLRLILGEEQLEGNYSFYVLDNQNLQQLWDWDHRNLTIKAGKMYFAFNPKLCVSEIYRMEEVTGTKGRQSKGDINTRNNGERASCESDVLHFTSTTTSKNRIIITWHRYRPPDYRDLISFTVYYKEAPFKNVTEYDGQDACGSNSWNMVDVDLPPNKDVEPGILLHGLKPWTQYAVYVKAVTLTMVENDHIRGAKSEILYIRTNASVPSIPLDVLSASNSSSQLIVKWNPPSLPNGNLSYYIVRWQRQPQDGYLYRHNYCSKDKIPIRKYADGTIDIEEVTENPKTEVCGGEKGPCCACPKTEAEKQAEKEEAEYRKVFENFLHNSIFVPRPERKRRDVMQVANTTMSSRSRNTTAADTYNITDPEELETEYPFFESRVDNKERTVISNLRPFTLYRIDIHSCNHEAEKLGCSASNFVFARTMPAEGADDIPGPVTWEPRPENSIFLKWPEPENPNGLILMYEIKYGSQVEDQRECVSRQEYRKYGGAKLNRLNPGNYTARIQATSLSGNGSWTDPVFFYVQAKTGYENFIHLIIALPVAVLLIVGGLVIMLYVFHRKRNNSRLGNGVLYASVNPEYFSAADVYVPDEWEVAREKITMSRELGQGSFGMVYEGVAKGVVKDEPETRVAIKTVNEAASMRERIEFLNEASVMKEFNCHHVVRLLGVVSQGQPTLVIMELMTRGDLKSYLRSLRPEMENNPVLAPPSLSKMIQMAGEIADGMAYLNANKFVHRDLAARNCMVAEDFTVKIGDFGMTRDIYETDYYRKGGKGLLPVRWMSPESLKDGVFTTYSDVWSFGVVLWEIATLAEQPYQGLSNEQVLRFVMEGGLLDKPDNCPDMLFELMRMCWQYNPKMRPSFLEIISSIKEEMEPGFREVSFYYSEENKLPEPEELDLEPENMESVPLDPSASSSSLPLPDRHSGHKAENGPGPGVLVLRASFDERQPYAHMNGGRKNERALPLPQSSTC
T3 sequence (P11362 458-765 C488A/C584S): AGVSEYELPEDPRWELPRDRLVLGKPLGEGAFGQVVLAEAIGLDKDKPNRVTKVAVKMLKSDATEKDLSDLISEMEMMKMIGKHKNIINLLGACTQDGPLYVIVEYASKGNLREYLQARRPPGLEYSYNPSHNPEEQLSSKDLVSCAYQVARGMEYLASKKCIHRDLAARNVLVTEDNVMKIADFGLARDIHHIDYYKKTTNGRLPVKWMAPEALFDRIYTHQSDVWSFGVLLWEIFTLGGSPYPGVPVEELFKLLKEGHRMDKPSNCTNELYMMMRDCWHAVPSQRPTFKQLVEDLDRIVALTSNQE
T6 sequence (P11362 22-822): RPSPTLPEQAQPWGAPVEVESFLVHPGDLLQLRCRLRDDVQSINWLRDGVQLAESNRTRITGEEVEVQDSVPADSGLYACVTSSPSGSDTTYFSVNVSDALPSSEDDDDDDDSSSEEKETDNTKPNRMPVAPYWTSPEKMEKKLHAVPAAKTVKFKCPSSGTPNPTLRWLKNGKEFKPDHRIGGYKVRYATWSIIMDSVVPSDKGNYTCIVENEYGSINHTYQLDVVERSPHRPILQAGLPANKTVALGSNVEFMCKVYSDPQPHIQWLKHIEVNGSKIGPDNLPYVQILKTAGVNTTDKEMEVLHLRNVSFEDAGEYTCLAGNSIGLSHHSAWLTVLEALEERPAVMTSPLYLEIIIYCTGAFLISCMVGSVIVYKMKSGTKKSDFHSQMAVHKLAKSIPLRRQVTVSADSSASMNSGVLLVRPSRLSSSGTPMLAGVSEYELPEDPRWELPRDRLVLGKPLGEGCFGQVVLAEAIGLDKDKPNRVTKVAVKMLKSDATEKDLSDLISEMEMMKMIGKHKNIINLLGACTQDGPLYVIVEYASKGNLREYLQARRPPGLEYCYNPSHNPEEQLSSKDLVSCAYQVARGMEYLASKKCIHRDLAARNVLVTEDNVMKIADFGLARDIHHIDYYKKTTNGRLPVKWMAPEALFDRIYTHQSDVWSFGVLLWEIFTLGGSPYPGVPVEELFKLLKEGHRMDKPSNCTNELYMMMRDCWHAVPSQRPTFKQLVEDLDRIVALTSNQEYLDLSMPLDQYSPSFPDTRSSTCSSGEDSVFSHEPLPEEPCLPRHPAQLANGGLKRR
T5 sequence (P08684 whole entry): as the sequence (P08684 whole entry) above
Sequence of FGFR1 kinase (P11362 22-822): as the sequence (P11362 22-822) above

SMILES: Cc1cc(CNc2ncc(Cl)c(Nc3cc(C)[nH]n3)n2)on1 [(b), 5-chloro-N-[(3-methylisoxazol-5-yl)methyl]-N′-(5-methyl-2H-pyrazol-3-yl)pyrimidine-2,4-diamine]
- IC50 [1]: 1.12 µM
- IC50 [2]: 0.46 µM
- IC50 [3]: 4.4 µM
- IC50 (CYP2D6): > 10 µM
- IC50 [4]: > 10 µM

SMILES: Cc1cc(Nc2nc(NCc3cc(C)no3)ncc2Br)[nH]n1 [Comparative Example (a), 5-bromo-N-[(3-methylisoxazol-5-yl)methyl]-N′-(5-methyl-2H-pyrazol-3-yl)pyrimidine-2,4-diamine]
- IC50 (FGFR kinase domain; [7]): 0.14 µM
- IC50 [1]: > 10 µM
- IC50 [2]: 0.79 µM
- IC50 [3]: 3.31 µM
- IC50 (CYP2D6): > 10 µM
- IC50 [4]: > 10 µM

SMILES: CCCc1cc(Nc2nc(NCc3cc(C)no3)ncc2Br)n[nH]1 [Comparative Example (d), 5-bromo-N-[(3-methylisoxazol-5-yl)methyl]-N′-(5-propyl-2H-pyrazol-3-yl)pyrimidine-2,4-diamine]
- IC50 (FGFR kinase domain; [7]): 0.09 µM
- IC50 [1]: 3.08 µM
- IC50 [2]: ≤ 0.1 µM
- IC50 [3]: 0.37 µM
- IC50 (CYP2D6): > 10 µM
- IC50 [4]: 2.88 µM

SMILES: Cc1cc(CNc2nccc(Nc3cc(C)[nH]n3)n2)on1 [Example 1, N-[(3-methylisoxazol-5-yl)methyl]-N′-(5-methyl-2H-pyrazol-3-yl)pyrimidine-2,4-diamine]
- IC50 [1]: > 10 µM
- IC50 [2]: > 10 µM
- IC50 (human IGF1R): > 10 µM
- IC50 [3]: 5.7 µM
- IC50 (CYP2D6): > 10 µM
- IC50 [4]: > 10 µM
- IC50 (Erk phosphorylation; NIH3T3): < 1 µM

SMILES: Cc1cc(CNc2nccc(Nc3cc(C4CC4)[nH]n3)n2)on1 [Example 9, N′-(5-cyclopropyl-2H-pyrazol-3-yl)-N-[(3-methyl-1,2-oxazol-5-yl)methyl]pyrimidine-2,4-diamine]
- IC50 (FGFR kinase domain; [8]): < 0.1 µM
- IC50 (FGFR kinase domain; [7]): 0.04 µM
- IC50 [1]: > 10 µM
- IC50 [2]: 2.19 µM
- IC50 (human IGF1R): 1 to 10 µM
- IC50 (CYP3A4): > 10 µM
- IC50 (CYP2D6): > 10 µM
- IC50 [4]: > 10 µM

SMILES: COc1cc(COc2cc(Nc3ccnc(NCc4cc(C)no4)n3)n[nH]2)cc(OC)c1 [Example 73, N′-[5-[(3,5-dimethoxyphenyl)methoxy]-1H-pyrazol-3-yl]-N-[(3-methyl-1,2-oxazol-5-yl)methyl]pyrimidine-2,4-diamine]
- IC50 (FGFR kinase domain; [8]): < 0.1 µM
- IC50 (FGFR1 kinase): < 0.2 µM
- IC50 (FGFR1 IIIc [5]): < 0.2 µM
- IC50 (human IGF1R): 1 to 10 µM
- IC50 (FGFR1 IIIc [6]): < 0.2 µM
- IC50 (Erk phosphorylation; NIH3T3, NIH 3T3 cells, 3 ng/ml bFGF): < 0.2 µM

SMILES: COc1ccc2[nH]c([S+]([O-])Cc3ncc(C)c(OC)c3C)nc2c1 (stereo not drawn) [Omeprazole]
- IC50 [4]: 1.5 to 4.6 µM
